Among the data in ChEMBL document CHEMBL4190201, “Anti-inflammatory 12,20-Epoxypregnane and 11,12-seco-Pregnane Glycosides from the Stems of Hoya kerrii” (J Nat Prod, 2017) are IC50 and Activity values, retold here.

Data set [1] deals with RAW264.7. Description: Antiinflammatory activity in mouse RAW264.7 cells assessed as inhibition of LPS-induced nitric oxide production by measuring nitrite accumulation by Griess method. In kind it is functional, cell-based.
The subject of data set [2] is RAW264.7. Description: Cytotoxicity in LPS-stimulated mouse RAW264.7 cells at =>100 uM by MTT assay. It is filed as cell-based.
Data set [3] concerns RAW264.7. Briefly: Cytotoxicity in LPS-stimulated mouse RAW264.7 cells at =>10 uM by MTT assay. In kind it is cell-based.
Data set [4] has as its system RAW264.7. Briefly: Antiinflammatory activity in mouse RAW264.7 cells assessed as inhibition of LPS-induced iNOS mRNA expression after 20 hrs by RT-PCR method. It is filed as functional, cell-based.
Data set [5] relates to RAW264.7. Briefly: Antiinflammatory activity in mouse RAW264.7 cells assessed as inhibition of LPS-induced COX2 mRNA expression after 20 hrs by RT-PCR method. It is filed as functional, cell-based.

Molecules are shown by their SMILES.

In the case of `CO[C@@H]1C[C@H](O[C@H]2CC[C@@]3(C)C(=CC[C@@H]4[C@@H]3C(=O)[C@@H]3O[C@H](C)[C@@H]5CC[C@@]4(O)[C@]35C)C2)O[C@H](C)[C@@H]1OC(C)=O`, the IC50 in data set [1] (read-out: IC50) came out at 91.2 µM.

As to `CO[C@@H]1C[C@H](O[C@H]2CC[C@@]3(C)C(=CC[C@]4(O)[C@@H]3C(=O)[C@@H]3OC(C)[C@@H]5CC[C@@]4(O)[C@]35C)C2)O[C@H](C)[C@@H]1O[C@@H]1O[C@H](CO)[C@@H](O)[C@H](O)[C@H]1O` (stereo partly drawn), the IC50 in data set [1] (read-out: IC50) is over 100 µM.

Consider `CO[C@@H]1C[C@H](O[C@H]2CC[C@@]3(C)C(=CC[C@]4(O)[C@@H]3C(=O)[C@@H]3O[C@H](C)[C@@H]5CC[C@@]4(O)[C@]35C)C2)O[C@H](C)[C@@H]1O`, for which the IC50 in data set [1] (read-out: IC50) was 62.5 µM.

`COC(=O)[C@H]1[C@@H](C(=O)CC[C@H]2[C@H](C)OC(=O)[C@H]2C)CC=C2C[C@@H](O[C@H]3C[C@@H](OC)[C@@H](O)[C@@H](C)O3)CC[C@@]21C`: the IC50 in data set [1] (read-out: IC50) turned out to be 66.1 µM.

For the compound `COc1ccc2c(c1)c(CC(=O)O)c(C)n2C(=O)c1ccc(Cl)cc1` [INDOMETHACIN], the IC50 in data set [1] (read-out: IC50) worked out at 46.5 µM.

As to `N=C(NCCC[C@H](N)C(=O)O)N[N+](=O)[O-]` [NITROARGININE], the IC50 in data set [1] (read-out: IC50) was determined as 37.7 µM.

With `CO[C@@H]1C[C@H](O[C@H]2CC[C@@]3(C)C(=CC[C@@H]4[C@@H]3C(=O)[C@@H]3O[C@H](C)[C@@H]5CC[C@@]4(O)[C@]35C)C2)O[C@H](C)[C@@H]1O[C@@H]1O[C@H](CO)[C@@H](O)[C@H](O)[C@H]1O`, in data set [1] (read-out: IC50), the IC50 is over 100 µM.

Consider `CO[C@@H]1C[C@H](O[C@H]2CC[C@@]3(C)C(=CC[C@@H]4[C@@H]3C(=O)O[C@@]43CC[C@H]4[C@H](C)OC(=O)[C@]43C)C2)O[C@H](C)[C@@H]1OC(C)=O`, for which the IC50 in data set [1] (read-out: IC50) turned out to be 60.4 µM.

Turning to `CC(=O)Oc1ccccc1C(=O)O` [ASPIRIN], in data set [1], the IC50 was 43.2 µM.

Turning to `CO[C@@H]1C[C@H](O[C@H]2CC[C@@]3(C)C(=CC[C@]4(O)[C@@H]3C(=O)[C@@H]3O[C@H](C)[C@@H]5CC[C@@]4(O)[C@]35C)C2)O[C@H](C)[C@@H]1OC(C)=O`, the IC50 in data set [1] (read-out: IC50) worked out at 87.8 µM.

For `CO[C@@H]1C[C@H](O[C@H]2CC[C@@]3(C)C(=CC[C@@H]4[C@@H]3C(=O)[C@@H]3O[C@H](C)[C@@H]5CC[C@@]4(O)[C@]35C)C2)O[C@H](C)[C@@H]1O`, in data set [1] (read-out: IC50), the IC50 was 96.5 µM. For the same compound, the Activity entry in data set [2] is “Toxic”.

As for `CC(C)Cc1ccc(C(C)C(=O)O)cc1` (stereo not drawn) [IBUPROFEN], in data set [1] (read-out: IC50), the IC50 was determined as 54.5 µM.

Consider `COC(=O)[C@H]1[C@@H](C(=O)CC[C@H]2[C@H](C)OC(=O)[C@@H]2C)CC=C2C[C@@H](O[C@H]3C[C@@H](OC)[C@@H](OC(C)=O)[C@@H](C)O3)CC[C@@]21C`, for which the half-maximal inhibitory concentration (IC50) in data set [1] (read-out: IC50) was 31.6 µM.

As for `COC(=O)[C@H]1[C@@H](C(=O)CC[C@H]2[C@H](C)OC(=O)[C@@H]2C)CC=C2C[C@@H](O[C@H]3C[C@@H](OC)[C@@H](O)[C@@H](C)O3)CC[C@@]21C`, the IC50 in data set [1] (read-out: IC50) turned out to be 87.3 µM. Moreover, the Activity entry in data set [3] is on record as “Toxic”.

As for `COC(=O)[C@H]1[C@@H](C(=O)CC[C@H]2[C@H](C)OC(=O)[C@H]2C)CC=C2C[C@@H](O[C@H]3C[C@@H](OC)[C@@H](OC(C)=O)[C@@H](C)O3)CC[C@@]21C`, the IC50 in data set [1] (read-out: IC50) was determined as 12.6 µM. Moreover, the figures for the Activity entry in data set [4], in data set [5] and in data set [2] were “Dose-dependent effect”, “Dose-dependent effect” and “Toxic”, respectively.

In the case of `CO[C@@H]1C[C@H](O[C@H]2CC[C@@]3(C)C(=CC[C@@H]4[C@@H]3C(=O)[C@]3(O)O[C@H](C)[C@@H]5CC[C@@]4(O)[C@@]53C)C2)O[C@H](C)[C@@H]1O`, in data set [1] (read-out: IC50), the IC50 turned out to be 84 µM.

For `O=C(/C=C/c1ccc(O)c(O)c1)OCCc1ccccc1` [CAFFEIC ACID PHENETHYL ESTER], the IC50 in data set [1] (read-out: IC50) was found to be 9.3 µM.

Consider `CO[C@@H]1C[C@H](O[C@H]2CC[C@@]3(C)C(=CC[C@@H]4[C@@H]3C(=O)O[C@@]43CC[C@H]4[C@H](C)OC(=O)[C@]43C)C2)O[C@H](C)[C@@H]1O`, for which, in data set [1] (read-out: IC50), the IC50 was found to be 93.8 µM.
